What was measured:
Format in all cases: functional
Blautia producta = assay: Antibacterial activity against Ruminococcus productus by CLSI M11-A6 agar dilution method in presence of beta-lactamase inhibitor Sulbactam
Clostridium hathewayi = assay: Antibacterial activity against Clostridium hathewayi by CLSI M11-A6 agar dilution method in presence of beta-lactamase inhibitor Sulbactam; settings: Hungatella hathewayi
Clostridium glycolicum = assay: Antibacterial activity against Clostridium glycolicum by CLSI M11-A6 agar dilution method in presence of beta-lactamase inhibitor Sulbactam; settings: Terrisporobacter glycolicus
Finegoldia magna = assay: Antibacterial activity against Finegoldia magna by CLSI M11-A6 agar dilution method in presence of beta-lactamase inhibitor Sulbactam
[1] = tested on: Bifidobacterium adolescentis; assay: Antibacterial activity against Bifidobacterium adolescentis by CLSI M11-A6 agar dilution method in presence of beta-lactamase inhibitor Sulbactam
Thomasclavelia ramosa = assay: Antibacterial activity against Clostridium ramosum by CLSI M11-A6 agar dilution method in presence of beta-lactamase inhibitor Sulbactam
Prevotella nigrescens = assay: Antibacterial activity against Prevotella nigrescens by CLSI M11-A6 agar dilution method in presence of beta-lactamase inhibitor Sulbactam
Parabacteroides merdae = assay: Antibacterial activity against Parabacteroides merdae by CLSI M11-A6 agar dilution method in presence of beta-lactamase inhibitor Sulbactam
Clostridium tertium = assay: Antibacterial activity against Clostridium tertium by CLSI M11-A6 agar dilution method in presence of beta-lactamase inhibitor Sulbactam
[2] = tested on: Clostridium sporosphaeroides; assay: Antibacterial activity against Clostridium sporosphaeroides by CLSI M11-A6 agar dilution method in presence of beta-lactamase inhibitor Sulbactam; settings: Faecalispora sporosphaeroides
Clostridium sp. = assay: Antibacterial activity against Clostridium sp. by CLSI M11-A6 agar dilution method in presence of beta-lactamase inhibitor Sulbactam
Prevotella corporis = assay: Antibacterial activity against Prevotella corporis by CLSI M11-A6 agar dilution method in presence of beta-lactamase inhibitor Sulbactam
Clostridium beijerinckii = assay: Antibacterial activity against Clostridium beijerinckii by CLSI M11-A6 agar dilution method in presence of beta-lactamase inhibitor Sulbactam
Bifidobacterium bifidum = assay: Antibacterial activity against Bifidobacterium bifidum by CLSI M11-A6 agar dilution method in presence of beta-lactamase inhibitor Sulbactam
Clostridium sporogenes = assay: Antibacterial activity against Clostridium sporogenes by CLSI M11-A6 agar dilution method in presence of beta-lactamase inhibitor Sulbactam
Bifidobacterium longum = assay: Antibacterial activity against Bifidobacterium longum by CLSI M11-A6 agar dilution method in presence of beta-lactamase inhibitor Sulbactam
Ruminococcus torques = assay: Antibacterial activity against Ruminococcus torques by CLSI M11-A6 agar dilution method in presence of beta-lactamase inhibitor Sulbactam; settings: Mediterraneibacter torques
Clostridium butyricum = assay: Antibacterial activity against Clostridium butyricum by CLSI M11-A6 agar dilution method in presence of beta-lactamase inhibitor Sulbactam
Actinomyces naeslundii = assay: Antibacterial activity against Actinomyces naeslundii by CLSI M11-A6 agar dilution method in presence of beta-lactamase inhibitor Sulbactam
Clostridium leptum = assay: Antibacterial activity against Clostridium leptum by CLSI M11-A6 agar dilution method in presence of beta-lactamase inhibitor Sulbactam
[3] = tested on: Bifidobacterium pseudolongum; assay: Antibacterial activity against Bifidobacterium pseudolongum by CLSI M11-A6 agar dilution method in presence of beta-lactamase inhibitor Sulbactam
Prevotella denticola = assay: Antibacterial activity against Prevotella denticola by CLSI M11-A6 agar dilution method in presence of beta-lactamase inhibitor Sulbactam
[4] = tested on: Paraclostridium bifermentans; assay: Antibacterial activity against Clostridium bifermentans by CLSI M11-A6 agar dilution method in presence of beta-lactamase inhibitor Sulbactam
Prevotella buccae = assay: Antibacterial activity against Prevotella buccae by CLSI M11-A6 agar dilution method in presence of beta-lactamase inhibitor Sulbactam; settings: Segatella buccae
Bacteroides fragilis = assay: Antibacterial activity against Bacteroides fragilis by CLSI M11-A6 agar dilution method in presence of beta-lactamase inhibitor Sulbactam
Bifidobacterium breve = assay: Antibacterial activity against Bifidobacterium breve by CLSI M11-A6 agar dilution method in presence of beta-lactamase inhibitor Sulbactam
[5] = tested on: Sutterella wadsworthensis; assay: Antibacterial activity against Sutterella wadsworthensis by CLSI M11-A6 agar dilution method in presence of beta-lactamase inhibitor Sulbactam
[6] = tested on: Catenibacterium mitsuokai; assay: Antibacterial activity against Catenibacterium mitsuokai by CLSI M11-A6 agar dilution method in presence of beta-lactamase inhibitor Sulbactam
[7] = tested on: Enterocloster clostridioformis; assay: Antibacterial activity against Clostridium clostridioforme by CLSI M11-A6 agar dilution method in presence of beta-lactamase inhibitor Sulbactam
Streptococcus anginosus = assay: Antibacterial activity against Streptococcus anginosus by CLSI M11-A6 agar dilution method in presence of beta-lactamase inhibitor Sulbactam
[8] = tested on: Prevotella melaninogenica; assay: Antibacterial activity against Prevotella melaninogenica by CLSI M11-A6 agar dilution method in presence of beta-lactamase inhibitor Sulbactam
Clostridioides difficile = assay: Antibacterial activity against Clostridium difficile by CLSI M11-A6 agar dilution method in presence of beta-lactamase inhibitor Sulbactam
Clostridium bartlettii = assay: Antibacterial activity against Clostridium bartlettii by CLSI M11-A6 agar dilution method in presence of beta-lactamase inhibitor Sulbactam; settings: Intestinibacter bartlettii
[9] = tested on: Clostridium paraputrificum; assay: Antibacterial activity against Clostridium paraputrificum by CLSI M11-A6 agar dilution method in presence of beta-lactamase inhibitor Sulbactam
Flavonifractor plautii = assay: Antibacterial activity against Clostridium orbiscindens by CLSI M11-A6 agar dilution method in presence of beta-lactamase inhibitor Sulbactam

## CC1(C)S[C@@H]2[C@H](NC(=O)[C@H](N)c3ccccc3)C(=O)N2[C@H]1C(=O)O [AMPICILLIN]
Blautia producta
  MIC50: ≤ 0.12 µg/mL
  MIC90: 1 µg/mL
Clostridium hathewayi
  MIC50: 2 µg/mL
  MIC90: 2 µg/mL
Clostridium glycolicum
  MIC50: 0.25 µg/mL
  MIC90: 1 µg/mL
Finegoldia magna
  MIC50: 0.25 µg/mL
  MIC90: 0.5 µg/mL
[1]
  MIC50: 0.25 µg/mL
  MIC90: 1 µg/mL
Thomasclavelia ramosa
  MIC50: ≤ 0.12 µg/mL
  MIC90: 0.5 µg/mL
Prevotella nigrescens
  MIC50: ≤ 0.12 µg/mL
  MIC90: 2 µg/mL
Parabacteroides merdae
  MIC50: 8 µg/mL
  MIC90: 32 µg/mL
Clostridium tertium
  MIC50: 0.25 µg/mL
  MIC90: 1 µg/mL
[2]
  MIC50: 0.25 µg/mL
  MIC90: 1 µg/mL
Clostridium sp.
  MIC50: 0.25 µg/mL
  MIC90: 1 µg/mL
Prevotella corporis
  MIC50: ≤ 0.12 µg/mL
  MIC90: 2 µg/mL
Clostridium beijerinckii
  MIC50: 0.25 µg/mL
  MIC90: 1 µg/mL
Bifidobacterium bifidum
  MIC50: 0.25 µg/mL
  MIC90: 1 µg/mL
Clostridium sporogenes
  MIC50: 0.25 µg/mL
  MIC90: 1 µg/mL
Bifidobacterium longum
  MIC50: 0.25 µg/mL
  MIC90: 1 µg/mL
Ruminococcus torques
  MIC50: ≤ 0.12 µg/mL
  MIC90: 1 µg/mL
Clostridium butyricum
  MIC50: 0.25 µg/mL
  MIC90: 1 µg/mL
Actinomyces naeslundii
  MIC50: 0.25 µg/mL
  MIC90: 1 µg/mL
Clostridium leptum
  MIC50: 0.25 µg/mL
  MIC90: 1 µg/mL
[3]
  MIC50: 0.25 µg/mL
  MIC90: 1 µg/mL
Prevotella denticola
  MIC50: ≤ 0.12 µg/mL
  MIC90: 2 µg/mL
[4]
  MIC50: 0.25 µg/mL
  MIC90: 1 µg/mL
Prevotella buccae
  MIC50: ≤ 0.12 µg/mL
  MIC90: 2 µg/mL
Bacteroides fragilis
  MIC50: 1 µg/mL
  MIC90: 8 µg/mL
Bifidobacterium breve
  MIC50: 0.25 µg/mL
  MIC90: 1 µg/mL
[5]
  MIC: 0.25 µg/mL
[6]
  MIC50: 0.25 µg/mL
  MIC90: 1 µg/mL
[7]
  MIC50: 2 µg/mL
  MIC90: 16 µg/mL
Streptococcus anginosus
  MIC50: 0.5 µg/mL
  MIC90: 0.5 µg/mL
[8]
  MIC50: ≤ 0.12 µg/mL
  MIC90: 2 µg/mL
Clostridioides difficile
  MIC: 2 µg/mL
  MIC50: 2 µg/mL
  MIC90: 4 µg/mL
Clostridium bartlettii
  MIC50: 0.25 µg/mL
  MIC90: 1 µg/mL
[9]
  MIC50: 0.25 µg/mL
  MIC90: 1 µg/mL
Flavonifractor plautii
  MIC50: 0.25 µg/mL
  MIC90: 1 µg/mL
